Data on two compounds can be found in PMC9788324, “In Vitro and In Silico Pharmacological and Cosmeceutical Potential of Ten Essential Oils from Aromatic Medicinal Plants from the Mascarene Islands” (Molecules, 2022).

The target in test [1] is T1, collagenase from Clostridium histolyticum (Type IV).
T1 construct: gene colG; native commercial collagenase from EnzChek Gelatinase/Collagenase Assay Kit; ColG/ColH not distinguished; docking used PDB 2Y6I, not the assay protein
Description: fluorescence assay, DQ gelatin-fluorescein ([…] nm). It is filed as biochemical, Hathewaya histolytica. The conditions noted are these: DQ gelatin substrate, 0.2 U/mL enzyme, 15 min preincubation at 37 °C; positive control, printed as '1,1 Phenanthroline' in table.

In test [2] the target is T2, porcine pancreatic elastase (Sus scrofa, UniProt P00772).
T2 construct: gene CELA1; commercial native pancreatic enzyme (Sigma-Aldrich); mature form; docking used PDB 1BRU (recalled as porcine elastase 2), not the assay protein
Description: chromogenic assay, absorbance at […] nm. The test is classed as biochemical. Conditions: read-out: Elastase Inhibition / IC50 (μg/mL) (converted).

T2 sequence (P00772 27-266): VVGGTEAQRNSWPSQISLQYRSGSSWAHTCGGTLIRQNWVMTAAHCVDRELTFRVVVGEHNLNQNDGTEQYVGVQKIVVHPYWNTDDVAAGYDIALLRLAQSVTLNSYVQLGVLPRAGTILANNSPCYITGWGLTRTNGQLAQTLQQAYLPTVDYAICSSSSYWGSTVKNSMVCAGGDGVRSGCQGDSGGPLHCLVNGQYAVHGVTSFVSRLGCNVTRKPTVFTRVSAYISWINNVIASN

On to `c1cnc2c(c1)ccc1cccnc12` [1,10-phenanthroline], for which the “Collagenase Inhibition / IC50 (mg/mL)” value in test [1] is 4.20 × 10^−3 ± 0.00 mg/mL.

For `C[C@H]1[C@H](C)CC[C@]2(C(=O)O)CC[C@]3(C)C(=CC[C@@H]4[C@@]5(C)CC[C@H](O)C(C)(C)[C@@H]5CC[C@]43C)[C@H]12` [Ursolic acid], the IC50 in test [2] was 22.1 µM.
